Experimental data published in US20170224688A1, “Methods of Using BTK Inhibitors to Treat Dermatoses” (Acerta Pharma B.V., priority 2016, published 2017).

Tests used:
[1] = system: signals through the B cell receptor; assay: In vitro potency in whole blood: CD69 on CD19+ B cells after anti-human IgD; assay type: cell-based; settings: blood of four healthy donors, 2 h with compound, anti-human IgD 10 μg/mL 18 h, flow cytometry, read-out: EC50, inhibition of CD69 on gated CD19+ B cells in whole blood
Protocol: Blood from four healthy donors was incubated for 2 hours with the compounds shown over a concentration range, and then stimulated with anti-human IgD [10 μg/mL] for 18 hours. The mean fluorescent intensity (MFI) of CD69 (and CD86, data not shown) on gated CD19+ B cells was measured by flow cytometry.

[2] = system: psoriasis; settings: patients treated for malignancies; cited from earlier work
[3] = system: BCR activation markers CD69 and CD86; assay: In vivo potency: BCR activation markers after oral gavage; settings: mice gavaged, sacrificed 3 h post-dose, BCR stimulated with IgM, flow cytometry (FIG. 1)
Protocol: Mice were gavaged at increasing drug concentration and sacrificed at one time point (3 h post-dose). BCR is stimulated with IgM and the expression of activation markers CD69 and CD86 are monitored by flow cytometry to determine EC50's.
CD86 and CD69 are cell surface proteins that are BCR activation markers. […] BCR was stimulated with IgM and the expression of activation marker CD69 and CD86 are monitored by flow cytometry and to determine EC50 values.

[4] = biological target: EGFR (Homo sapiens, UniProt P00533); assay: EGF-induced EGFR phosphorylation in A431 cells (phosphoflow cytometry); settings: at 10 μM, A431 human epidermoid cancer cell line
[5] = Oral bioavailability (preclinical characteristics); settings: in vivo
Text: (§1) Clinical studies have shown that targeting the BCR signaling pathway by inhibiting BTK produces significant clinical benefit in patients with various types of leukemias and lymphomas.

[6] = Preliminary evaluation of metabolism in plasma, bile, and urine; assay type: in vivo; settings: rats, dogs, monkeys; preliminary evaluations
[7] = system: CYP enzymes; assay: Nonclinical CYP interaction studies; assay type: in vitro ADME
[8] = system: psoriasis; assay: Clinical observation of psoriasis in CLL patients on study drug; assay type: in vivo, human
Text: as §1
The secondary objective of the clinical study is to evaluate tumor responses in patients treated with Formula (II).
The study scheme is a sequential cohort escalation. Each cohort consists of six subjects. The sample size of the study is 24 to 36 subjects, depending on dose escalation into subsequent cohorts. […] The dose level for Cohort 6 will be determined based on the safety and efficacy of Cohorts 1 to 5, and will not exceed 900 mg/day. Escalation will end with either the MTD cohort or three levels above full BTK occupancy, whichever is observed first. An additional arm of the study will explore 100 mg BID dosing.
The color of the capsules is Swedish orange. The route of administration is oral (per os, or PO). The dose regimen is once daily or twice daily, as defined by the cohort, on an empty stomach (defined as no food 2 hours before and 30 minutes after dosing).
(§2) Subject 1 in the clinical study of Example 12 is a CLL patient with a history of psoriatic skin disease. Subject 1 had psoriasis, without involvement of joints, and with diffuse plaques on their trunk and extremities. Their psoriasis was severe, with ˜30% body surface area (BSA) affected (>10% BSA is considered severe disease). They were treated over time with several systemic therapies including etanercept, adalimumab, and a 2010 clinical study of an experimental agent.
When treatment with Formula (2) was initiated, Subject 1's skin symptoms started to improve rapidly. […] By Cycle 10 (10 months on Formula (2)), their skin was clear. […] The only remainder was some scaling in the same areas that were once affected by psoriasis lesions.
Subject 2 was enrolled in a clinical study similar to that described above, and also experienced resolution of moderate-to-severe plaque psoriasis (a “florid” case) while on treatment with Formula (2). The subject's disease history included extensive body surface area involvement, mainly on the back and thighs, for most of their adult life.

[9] = Glutathione binding and depletion in vitro; assay type: in vitro ADME
[10] = system: hepatocytes; assay: In vitro metabolism in hepatocytes with 14C-labeled drug; assay type: in vitro ADME, mouse, rat, dog, rabbit, monkey, and human
[11] = Study of respiratory function (GLP safety pharmacology); settings: rats, doses through 300 mg/kg (highest dose level)
[12] = biological target: CYP3A4 (Homo sapiens, UniProt P08684); assay: Loss of parent drug as catalyzed by CYPs; assay type: in vitro ADME; settings: in vitro
[13] = system: hematologic malignancies; settings: cited from earlier work
[14] = system: psoriasis; assay: Treatment history of Subject 1's psoriasis; assay type: in vivo, human; settings: Subject 1, before enrolling in the clinical study
Protocol: as §2

EGFR, sequence (P00533 25-1210): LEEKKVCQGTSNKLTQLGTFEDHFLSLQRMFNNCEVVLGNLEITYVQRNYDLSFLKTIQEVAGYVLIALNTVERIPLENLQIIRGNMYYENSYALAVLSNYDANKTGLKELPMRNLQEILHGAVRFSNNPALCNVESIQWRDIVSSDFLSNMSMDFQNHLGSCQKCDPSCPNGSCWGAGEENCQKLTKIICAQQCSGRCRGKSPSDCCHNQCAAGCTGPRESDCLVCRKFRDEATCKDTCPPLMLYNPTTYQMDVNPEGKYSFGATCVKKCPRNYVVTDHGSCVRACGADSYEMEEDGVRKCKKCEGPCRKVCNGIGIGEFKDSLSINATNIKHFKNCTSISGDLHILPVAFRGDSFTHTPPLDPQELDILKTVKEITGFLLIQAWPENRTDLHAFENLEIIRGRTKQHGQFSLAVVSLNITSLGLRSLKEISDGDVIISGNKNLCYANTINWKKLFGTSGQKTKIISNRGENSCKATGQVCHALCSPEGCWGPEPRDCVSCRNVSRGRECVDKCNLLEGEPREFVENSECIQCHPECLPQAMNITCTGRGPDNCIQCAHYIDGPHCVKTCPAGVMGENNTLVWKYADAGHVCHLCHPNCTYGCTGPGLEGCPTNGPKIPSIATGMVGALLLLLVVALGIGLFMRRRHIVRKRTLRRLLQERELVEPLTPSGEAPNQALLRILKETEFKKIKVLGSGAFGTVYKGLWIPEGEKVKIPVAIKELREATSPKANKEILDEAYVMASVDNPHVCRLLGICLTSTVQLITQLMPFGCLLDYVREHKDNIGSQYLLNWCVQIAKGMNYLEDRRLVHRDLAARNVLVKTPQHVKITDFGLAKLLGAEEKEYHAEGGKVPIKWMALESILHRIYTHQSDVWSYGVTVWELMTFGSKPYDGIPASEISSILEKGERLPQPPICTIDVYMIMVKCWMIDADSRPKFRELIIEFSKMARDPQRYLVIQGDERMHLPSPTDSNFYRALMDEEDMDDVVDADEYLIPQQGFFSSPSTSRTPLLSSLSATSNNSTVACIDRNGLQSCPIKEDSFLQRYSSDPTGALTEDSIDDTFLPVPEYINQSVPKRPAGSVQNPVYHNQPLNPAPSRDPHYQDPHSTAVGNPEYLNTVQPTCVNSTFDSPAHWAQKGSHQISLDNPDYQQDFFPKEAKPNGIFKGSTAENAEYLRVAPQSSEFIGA
CYP3A4, sequence (P08684 whole entry, species assumed): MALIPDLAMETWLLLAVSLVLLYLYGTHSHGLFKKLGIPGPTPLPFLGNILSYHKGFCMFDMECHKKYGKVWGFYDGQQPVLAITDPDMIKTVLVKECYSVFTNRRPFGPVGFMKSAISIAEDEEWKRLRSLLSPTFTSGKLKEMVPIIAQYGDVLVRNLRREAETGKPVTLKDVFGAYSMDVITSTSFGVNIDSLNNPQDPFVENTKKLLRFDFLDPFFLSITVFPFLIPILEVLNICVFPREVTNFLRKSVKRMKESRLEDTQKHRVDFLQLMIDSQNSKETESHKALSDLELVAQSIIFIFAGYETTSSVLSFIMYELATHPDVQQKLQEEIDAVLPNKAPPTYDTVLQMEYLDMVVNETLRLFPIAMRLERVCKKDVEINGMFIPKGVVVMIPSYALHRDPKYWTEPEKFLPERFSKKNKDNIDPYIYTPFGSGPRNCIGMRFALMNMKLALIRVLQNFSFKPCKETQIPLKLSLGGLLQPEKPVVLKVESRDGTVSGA

Work on C=CC(=O)Nc1cccc(Nc2nc(Nc3ccc(OCCOC)cc3)ncc2F)c1 [CC-292, N-(3-((5-fluoro-2-((4-(2-methoxyethoxy)phenyl)amino)pyrimidin-4-yl)amino)phenyl)acrylamide] yielded an EC50 [1] of 121 nM.
In the case of Cc1nc(Nc2ncc(C(=O)Nc3c(C)cccc3Cl)s2)cc(N2CCN(CCO)CC2)n1 [Dasatinib], the “effect on psoriasis / skin” value [2] is given as “has not been reported to improve psoriasis”.
For CC#CC(=O)N1CCC[C@H]1c1nc(-c2ccc(C(=O)Nc3ccccn3)cc2)c2c(N)nccn12 [Formula (II), (S)-4-(8-amino-3-(1-(but-2-ynoyl)pyrrolidin-2-yl)imidazo[1,5-a]pyrazin-1-yl)-N-(pyridin-2-yl)benzamide], the “in vivo potency at inhibiting expression of activation markers CD69 and CD86” value [3] was “more potent at inhibiting expression of activation makers than ibrutinib”, the “inhibition of in vitro EGFR phosphorylation” value [4] was “no inhibition” and the oral bioavailability [5] was “significant oral bioavailability”. For the same molecule, the EC50 [1] was 8.2 nM, the “metabolic processes in plasma, bile, and urine” value [6] was “oxidation, glutathione binding, and hydrolysis” and the “drug-drug interaction potential through CYP enzymes” value [7] was “very unlikely to cause clinical drug-drug interactions”. The “psoriasis skin symptoms, first month of therapy” value ([8]; Subject 1, CLL patient with severe psoriasis (~30% BSA), oral) was “some improvement”, the “psoriasis, first 6 months of treatment” value ([8]; Subject 1, oral) was “mostly resolved” and the “skin status by Cycle 10 (10 months)” value ([8]; Subject 1, oral) was “clear”. The “moderate-to-severe plaque psoriasis after start of treatment” value ([8]; Subject 2, similar clinical study) was “cleared quickly”, the “glutathione binding and depletion” value [9] was “binds to glutathione but does not deplete glutathione” and the unique human metabolite ([10]; hepatocytes of six species) was “No unique human metabolite was identified”. For the same molecule, the metabolites in hepatocytes ([10]; mouse, rat, dog, rabbit, monkey, human hepatocytes, 14C-labeled drug) was “two mono-oxidized metabolites and a glutathione conjugate”, the respiratory function [11] was “no treatment-related adverse effects” and the “metabolizing CYP (loss of parent drug)” value [12] was “metabolized by CYP3A4”.
For C=CC(=O)N1CCC[C@@H](n2nc(-c3ccc(Oc4ccccc4)cc3)c3c(N)ncnc32)C1 [Ibrutinib, 1-[(3R)-3-[4-amino-3-(4-phenoxyphenyl)-1H-pyrazolo[3,4-d]pyrimidin-1-yl]piperidin-1-yl]prop-2-en-1-one], the antitumor activity ([13]; subjects with heavily pretreated non-Hodgkin lymphoma) is listed as “substantial antitumor activity”, the “maximum tolerated dose (MTD)” value ([13]; within the tested dose range (through 840 mg)) is listed as “No maximum tolerated dose (MTD) was apparent” and the EC50 [1] is listed as 6.1 nM.
In the case of Cc1ccc(C(=O)Nc2ccc(CN3CCN(C)CC3)c(C(F)(F)F)c2)cc1C#Cc1cnc2cccnn12 [Ponatinib], the “effect on psoriasis / skin” value [2] is given as “causes an extreme degree of skin drying and induces an almost psoriasis-like disease”.
In the case of Cc1ccc(NC(=O)c2ccc(CN3CCN(C)CC3)cc2)cc1Nc1nccc(-c2cccnc2)n1 [imatinib], the “effect on psoriasis / skin” value [2] is listed as “may cause worsening of psoriasis”.
In the case of etanercept, the “response of psoriasis to earlier therapy” value [14] is reported as “initially responded”.
